Where “and” joins values, the source holds several entries; their conditions need not be identical. Equal entries are not always repeated. Where two headings read alike, the source gives them in different places.

These results are taken from patent US20200138854A1, “Method of Detecting and Quantifying Bile Acid from Saliva” (Ironwood Pharmaceuticals, Inc., priority 2017, published 2020).

Series [1] is described as follows: Frozen (−20° C.) short-term stability in cholestyramine-treated human saliva. Particulars: for % Bias QC-LLOQ / % CV QC-LLOQ / Mean concentration QC-LLOQ / Concentration QC-LLOQ: nominal 0.500 ng/mL; for Concentration QC-LLOQ / Concentration QC-Mid / Concentration QC-High: run 33; for % Bias QC-Mid / % CV QC-Mid / Mean concentration QC-Mid / Concentration QC-Mid: nominal 8.00 ng/mL; for % Bias QC-High / % CV QC-High / Mean concentration QC-High / Concentration QC-High: nominal 80.0 ng/mL. Put shortly: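 Cholestyramine-treated human saliva was spiked with each analyte at QC-LLOQ, QC-Low, QC-Mid and QC-High levels and stored at −20° C. After 1 day and 2 days of storage, samples were extracted in replicates of four and analysed.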

The conditions of series [2]: in vivo, 3 h.
Experimental: Saliva samples were collected from 30 subjects from each group (Normal & GERD). All GERD patients were on proton pump inhibitor (PPI) standard therapy and received a PPI dose the morning of the visit to the clinic. Saliva samples were collected for 2 minutes (min) at the following time points: Fasted state in the morning; Various times after eating a hearty breakfast: 1 hour (hr) after meal; 2 hrs after meal; 3 hrs after meal; 4 hrs after meal.
All samples were received frozen, packaged on dry ice, and were stored in a freezer set to maintain a temperature of −80° C. until analysis.
Saliva was collected from human volunteers and then pooled. Aliquots of pooled saliva were stripped of endogenous bile acids by treatment with 2 mg/mL of cholestyramine resin (Sigma Lot No. 1425455V) for 1 hour at 37° C. followed by centrifugation. The treatment/centrifugation cycle was repeated four times for a total of five cycles. After the final treatment, the saliva was pooled for use. […]
Standards were prepared in small volumes on the day of sample extraction and were analyzed in duplicate in each analytical run. […]
The detector was an Applied Biosystems Sciex API-5500 triple quadrupole mass spectrometer. The instrument was equipped with an electrospray ionization source in positive-ion mode and the analytes were monitored in the multiple-reaction-monitoring scan mode. […]
Series [3] in a line: Long-term (1 month at −20° C. and −80° C.) stability in untreated human saliva. Conditions: for % Bias QC-High / % CV QC-High / Difference from Fresh (%) QC-High / Mean concentration QC-High / Concentration QC-High / Fresh QCs (Batch 34) Mean at Time Zero, QC-High: untreated human saliva, nominal 80.0 ng/mL; for Concentration QC-High: run 35.
Series [4] relates to conscious, pentagastrin-stimulated fistula dog. Conditions: cited from earlier work.
Series [5] has as its system intragastric pH. Particulars: cited from earlier work.
For series [6] the following is noted: 1 month.

For the compound `C[C@H](CCC(=O)O)[C@H]1CC[C@H]2[C@@H]3CC[C@@H]4C[C@H](O)CC[C@]4(C)[C@H]3C[C@H](O)[C@]12C` [Deoxycholic Acid, Deoxycholic acid], in series [1], the “Short-term stability in cholestyramine-treated human saliva” value was “up to 2 days” and the “Stability in Treated Human Saliva” value was 2 days. The “Concentration in human saliva samples” value in series [2] worked out at 1.65 ng/mL. Further, in series [3] (at 80° C. (sic)), the “Long-term stability in untreated human saliva” value was “up to 1 month”. For the same compound, the “Stability in Untreated Human Saliva” value in series [3] (at −20° C.) turned out to be 1 Month. The “Stability in Untreated Human Saliva” value in series [3] (at −80° C.) worked out at 1 Month.

In the case of `COC(=O)Nc1cccc(C)c1CNc1cccn2c(C)c(C)nc12` [BY841, (8-(2-methoxycarbonylamino-6-methyl-phenylmethylamino)-2,3-dimethyl-imidazo [1,2-a]-pyridine)], the “intragastric pH” value in series [4] was no more than 6; in series [5] (single 50 mg oral dose), “about 6”. Further, the “pH elevation compared with ranitidine and omeprazole” value in series [4] is “superior to both ranitidine and omeprazole”. For the same compound, in series [5] (50 mg or 100 mg twice daily, Day one of treatment), the “effectiveness in comparison with the standard dose of omeprazole” value was “markedly more effective”. Besides, the “potency in comparison with the standard dose of omeprazole” value in series [5] (50 mg or 100 mg twice daily, following repeated daily administration) is recorded as “at least as potent as omeprazole”.

Take `CC(CCC(=O)NCC(=O)O)C1CCC2C3C(O)CC4CC(O)CCC4(C)C3CCC12C` (stereo not drawn) [Glycochenodeoxycholic Acid, Glycochenodeoxycholic acid]: in series [1] (1 Day at −20° C.), the “% Bias QC-LLOQ” value was determined as 9.1%; the “% CV QC-LLOQ” value amounted to 4.7%; the “Mean concentration QC-LLOQ” value is 0.546 ng/mL; the “Concentration QC-LLOQ” value is 0.538 ng/mL and 0.551 ng/mL and 0.516 ng/mL and 0.578 ng/mL. For the same compound, in series [1] (1 Day at −20° C.), the “% Bias QC-Mid” value was −2.4%; the “% CV QC-Mid” value turned out to be 2.4%; the “Mean concentration QC-Mid” value stood at 7.81 ng/mL; the “Concentration QC-Mid” value is 7.56 ng/mL and 7.99 ng/mL and 7.92 ng/mL and 7.76 ng/mL. Besides, in series [1] (1 Day at −20° C.), the “% Bias QC-High” value is reported as −1.3%; the “% CV QC-High” value is 2.2%; the “Mean concentration QC-High” value turned out to be 78.9 ng/mL; the “Concentration QC-High” value is 79.3 ng/mL and 80.9 ng/mL and 76.6 ng/mL and 78.9 ng/mL. Moreover, in series [1] (2 Days at −20° C.), the “% Bias QC-LLOQ” value is listed as 16.5%; the “% CV QC-LLOQ” value was determined as 4.1%; the “Mean concentration QC-LLOQ” value stood at 0.583 ng/mL; the “Concentration QC-LLOQ” value is 0.596 ng/mL and 0.597 ng/mL and 0.555 ng/mL and 0.674^a ng/mL. For the same compound, in series [1] (2 Days at −20° C.), the “% Bias QC-Mid” value is recorded as 2.1%; the “% CV QC-Mid” value amounted to 3.8%; the “Mean concentration QC-Mid” value was found to be 8.17 ng/mL; the “Concentration QC-Mid” value was 7.71 ng/mL and 8.40 ng/mL and 8.22 ng/mL and 8.33 ng/mL. Besides, in series [1] (2 Days at −20° C.), the “% Bias QC-High” value stood at 0.9%; the “% CV QC-High” value is recorded as 2.9%; the “Mean concentration QC-High” value is listed as 80.8 ng/mL; the “Concentration QC-High” value is 78.3 ng/mL and 80.4 ng/mL and 80.3 ng/mL and 84.0 ng/mL. Besides, in series [1], the “Short-term stability in cholestyramine-treated human saliva” value is listed as “up to 2 days” and the “Stability in Treated Human Saliva” value stood at 2 days. Further, in series [6], the “Long-term stability in untreated human saliva” value is “up to 1 month” and the “Stability in Untreated Human Saliva” value was found to be 1 Month. In series [3] (1 month −20° C. storage), the “% Bias QC-High” value is reported as −4.9%, the “% CV QC-High” value is given as 2.4%, the “Difference from Fresh (%) QC-High” value is −4.4% and the “Mean concentration QC-High” value is given as 76.1 ng/mL. Further, the “Concentration QC-High” value in series [3] (1 month −20° C. storage) was 74.0 ng/mL and 77.4 ng/mL and 76.9 ng/mL. In series [3] (1 month −80° C. storage), the “% Bias QC-High” value is recorded as −3.6%, the “% CV QC-High” value is reported as 5.0%, the “Difference from Fresh (%) QC-High” value is listed as −3.1% and the “Mean concentration QC-High” value was determined as 77.1 ng/mL. Further, the “Concentration QC-High” value in series [3] (1 month −80° C. storage) was 80.6 ng/mL and 77.8 ng/mL and 73.0 ng/mL. Moreover, the “Fresh QCs (Batch 34) Mean at Time Zero, QC-High” value in series [3] (reference for −20° C. storage) is recorded as 79.6 ng/mL. The “Fresh QCs (Batch 34) Mean at Time Zero, QC-High” value in series [3] (reference for −80° C. storage) was found to be 79.6 ng/mL.
